# Measured values: publication PMC5688144, “Assay interference and off-target liabilities of reported histone acetyltransferase inhibitors” (Nature Communications, 2017)
# “Also recorded” adds a separate entry of the source.
# How the values were obtained:
# human La antigen = molecular target: T1, human La antigen (Homo sapiens, UniProt P05455, T302N); test: ALARM NMR; assay type: binding; details: 400 μM compound; for ALARM NMR, (-) DTT: 0 mM DTT; for ALARM NMR, (+) DTT: DTT present; for ALARM NMR interpretation: with and without DTT
# T1 construct: amino acids 100–324 of the human La antigen (plus T302N mutation); 6xHis (N); 6xHis (C); host or cells: Escherichia coli Rosetta cells
# T1 sequence (P05455 100-324 T302N): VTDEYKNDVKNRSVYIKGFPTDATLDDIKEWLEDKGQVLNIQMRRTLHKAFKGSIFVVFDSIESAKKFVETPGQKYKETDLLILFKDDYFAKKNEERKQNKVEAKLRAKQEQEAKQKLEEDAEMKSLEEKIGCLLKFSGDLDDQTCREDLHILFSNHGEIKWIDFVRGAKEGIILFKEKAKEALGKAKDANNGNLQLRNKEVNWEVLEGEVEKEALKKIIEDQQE
# Text: The gene encoding amino acids 100–324 of the human La antigen (plus T302N mutation) was cloned into pET28b + vector (Novagen) with both an N- and C-terminal 6xHis tag (addgene.org, plasmid ID 90209). The sequence identity of the ALARM NMR plasmid construct was verified by Sanger sequencing of the transgene region and next-generation sequencing of the whole plasmid.
# Plasmid was transformed into Escherichia coli Rosetta cells (Novagen) and cultured in M9 minimal media. The La antigen was labeled by adding ^13C-labeled amino acid precursors ([3-^13C]-α-ketobutyrate and [3,3′-^13C]-α-ketoisovalerate sodium salts; Cambridge Isotope Laboratories; 250 mg L^−1 final concentrations) to culture medium 30 min before induction with IPTG (1 mM final concentration). Bacteria were collected after incubation at 25 °C for 8 h and washed with ice-cold phosphate-buffered saline (PBS). Washed cells were lysed by French press in ice-cold lysis buffer (50 mM Tris, pH 7.6, 300 mM NaCl, 10% glycerol (v/v), 5 mM β-mercaptoethanol (BME), 5 mM imidazole, 2 mM MgCl2, benzonase, and protease inhibitor cocktail), followed by an additional brief sonication step (3 × 15 s pulse sequence) on ice. This lysed solution was centrifuged (30,000×g for 30 min, two cycles) to remove cellular debris, then loaded onto a pre-washed Ni-NTA bead column (Qiagen) kept at 4 °C and washed with buffer (50 mM Tris, pH 7.6, 300 mM NaCl, 10% glycerol (v/v), 5 mM BME, 5 mM imidazole). The La antigen was eluted with an elution buffer (50 mM Tris, pH 7.6, 300 mM NaCl, 10% glycerol (v/v), 5 mM BME, imidazole gradient ranging from 5 mM to 0.5 M). […] Aliquots were flash-frozen in liquid N2 and stored at −80 °C until further use. Before use, aliquots of ~150 μM protein were incubated in the presence of 20 mM DTT at 37 °C for 1 h, then dialyzed (25 mM sodium phosphate buffer, pH 7.0 (no DTT)) in 16 h cycles at 4 °C with constant nitrogen bubbling and with gentle stirring, for three total buffer cycles.
# For standard testing conditions, the [^1H-^13C]-HMQC spectra were acquired in 25 mM sodium phosphate buffer, pH 7.0, 10% D2O (v/v; CIL) ± 400 μM test compounds delivered from the aforementioned stock solutions, and ± 20 mM non-deuterated DTT. Final concentration of DMSO was 4.0% (v/v). Reaction solutions were mixed, then centrifuged for 5 min (1000×g) in non-binding 384-well microplates at RT, then incubated at 37 °C for 1 h and then 30 °C for 15 h before obtaining spectra. Samples were checked for evidence of gross precipitation. Data were recorded at 298 K on a Bruker UltraShield 700 MHz NMR spectrometer equipped with a Bruker 1.7 mm TCI Cryoprobe and Bruker SampleJet autosampler. Samples were tested at 50 μM protein concentrations using 16 scans, 2048 complex points in F2, and 80 points in F1 using standard protein [^1H-^13C]-HMQC and water suppression pulse sequences.
# Data were analyzed in TopSpin™ 3.5 (Bruker). Reactions were normalized to equivalent DMSO controls. Non-reactive compounds were identified by the absence of chemical shifts or changes in peak intensities (^13C-methyl) ± 20 mM DTT.
# [1] = Autofluorescence counter-screen; assay type: physicochemical; details: autofluorescence at eight fluorophore settings; 32 nM-100 μM compound
# Procedure: Selected test compounds were assessed for autofluorescence using an adaption of published procedures. […] Final concentration of DMSO was constant at 1.0% (v/v). Compounds and fluorophore standards were transferred as 10 mM DMSO stock solutions to 384-well black polystyrene microplates via Echo 550 dispenser. The plate arrangement was purposefully designed to minimize optical crosstalk by fluorophore standards. All measurements were performed in ALARM NMR buffer (25 mM sodium phosphate, pH 7.0) at 25 °C. Aliquots of 20 μL buffer were dispensed into microplate wells via ThermoFisher Multidrop dispenser. Compounds were shaken for 1 min on a plate shaker, centrifuged briefly for 1 min at 1000×g, then allowed to incubate at RT in buffer for 10 min before measuring fluorescence intensity on a SpectraMax M3 plate reader under reduced lighting. […] Bandwidth filters were set to default mode. Fluorescence intensity was measured for each test compound using each of the eight fluorophore standard settings. Fluorophores present on each plate were then used to construct normalized fluorescence dose-responses (“fluorophore-equivalent concentrations”, FEC). Fluorescence intensity for each test compound was converted to the appropriate FEC.
# [2] = Fluorescence quenching counter-screen; assay type: physicochemical; details: 10 μM fluorophore; 32 nM-100 μM compound
# Procedure: Selected test compounds were assessed for fluorescence quenching using adaptions of previously published procedures[9],[24]. Briefly, test compounds and individual fluorophore standards were incubated together. The fluorescence intensity of these mixtures was compared to the fluorescence intensity of the same fluorophore standards minus test compounds. Each microplate contained positive control columns (DMSO plus fixed concentration of a single fluorophore), negative control columns (DMSO), and experimental wells (test compounds plus fixed concentration of a single fluorophore). […] Final concentration of DMSO was constant at 2.0% (v/v). […] All measurements were performed in ALARM NMR buffer (25 mM sodium phosphate, pH 7.0) at 25 °C. Aliquots of 20 μL buffer were dispensed into microplate wells via ThermoFisher Multidrop dispenser. Microplates were shaken for 1 min on a plate shaker, centrifuged briefly for 1 min at 1000×g, then allowed to incubate at RT for 10 min before measuring fluorescence intensity on a SpectraMax M3 plate reader under reduced lighting. Instrument settings for each fluorophore were unchanged from the aforementioned autofluorescence studies.
# [3] = UPLC-MS gross compound stability in assay buffer; details: 25 mM sodium phosphate, pH 7.0, 30 °C, no GSH or CoA
# Procedure: Select compounds were incubated up to 24 h for additional stability analyses. Chromatograms and mass spectra were qualitatively analyzed for the formation of new peaks and/or loss of parent peaks.
Molecule,"ALARM NMR, (-) DTT (human La antigen)","ALARM NMR, (+) DTT (human La antigen)",ALARM NMR interpretation (human La antigen),Fluorescence counter-screen [1],Quenching counter-screen [2],ALARM NMR readout (human La antigen; overall readout),UPLC-MS buffer stability counter-screen [3]
Garcinol [Compound 13],Positive,Positive,Nonspecific perturbation,Negative,Flagged (Significant fluorescence quenching was defined as signal reduction greater than 25% of the corresponding fluorophore signal at any test compound concentration),–,–
"COc1ccc(/C(Cl)=C(/C=O)c2ccc(OC)cc2)cc1 [Compound 18, Windorphen]",Negative,Negative,Inert as tested,Negative,Flagged (Significant fluorescence quenching was defined as signal reduction greater than 25% of the corresponding fluorophore signal at any test compound concentration),negative,Grossly stable
"CCCC1(c2ccccc2)NC(=O)N(CC(=O)N(C)Cc2c(F)cccc2Cl)C1=O (stereo not shown) [Compound 21, N-[(2-chloro-6-fluorophenyl)methyl]-2-(2,5-dioxo-4-phenyl-4-propylimidazolidin-1-yl)-N-methylacetamide]",Negative,Negative,Inert as tested,Negative,Flagged (Significant fluorescence quenching was defined as signal reduction greater than 25% of the corresponding fluorophore signal at any test compound concentration),–,Grossly stable
Plumbagin [Compound 8],Positive,Negative,Thiol-reactive,Negative,Negative,–,Grossly stable
"Cl.Cl.O=C(O)Cn1nnc(-c2ccc(CN(CCCCOc3ccc(CN4CCCC4)cc3)CCc3ccccc3)cc2)n1 [Compound 20, TH1834]",Negative,Negative,Inert as tested,Negative,Flagged (Significant fluorescence quenching was defined as signal reduction greater than 25% of the corresponding fluorophore signal at any test compound concentration),–,–
"COc1cc(/C=C/C(=O)CC(=O)/C=C/c2ccc(O)c(OC)c2)ccc1O [Compound 11, Curcumin]",Partial,Negative,Equivocal,Negative,Flagged (Significant fluorescence quenching was defined as signal reduction greater than 25% of the corresponding fluorophore signal at any test compound concentration),–,"Gross degradation observed; loss of parent peak, appearance of new peaks"
"CCCCCCCCCCCCCCCc1cccc(O)c1C(=O)O [Compound 14, Anacardic acid]",Positive,Positive,Nonspecific perturbation,Negative,Flagged (Significant fluorescence quenching was defined as signal reduction greater than 25% of the corresponding fluorophore signal at any test compound concentration),–,–
"Cc1cc2c(C(C)C)c(O)c(O)c(C=O)c2c(O)c1-c1c(C)cc2c(C(C)C)c(O)c(O)c(C=O)c2c1O [Compound 16, Gossypol]",Positive,Positive,nonspecific protein perturbation,Negative,Flagged (Significant fluorescence quenching was defined as signal reduction greater than 25% of the corresponding fluorophore signal at any test compound concentration),–,–
"CCCCCCCc1ccc(CCc2cccc(O)c2C(=O)O)cc1 [Compound 15, MG 149]",Positive,Positive,nonspecific protein perturbation; also recorded: potential aggregator,Negative,Flagged (Significant fluorescence quenching was defined as signal reduction greater than 25% of the corresponding fluorophore signal at any test compound concentration),–,–
"COc1cc(/C=C/c2cc(/C=C/c3ccc(O)c(OC)c3)n(-c3ccc(C(=O)[O-])cc3)n2)ccc1O.[Na+] [Compound 17, CTK7A]",Positive,Positive,several new peaks independent of DTT; also recorded: Nonspecific perturbation (new peaks),Negative,Flagged (Significant fluorescence quenching was defined as signal reduction greater than 25% of the corresponding fluorophore signal at any test compound concentration),–,–
